Like-named read-outs stand apart in the source and are kept apart here.
What was measured:
[1] = for AUCextrap / Cmax/D / Lambda z: mean
[2] = in vivo; cited from earlier work
[3] = cited from earlier work
clinical = conditions: human, in vivo; for concentration at 0 h: Hour 0.0; for concentration at 36 h: Hour 36.0; for concentration at 48 h: Hour 48.0; for concentration at 60 h: Hour 60.0; for concentration at 72 h: Hour 72.0; for concentration at 0.08 h: Hour 0.08; for concentration at 2 h: Hour 2.0; for concentration at 3 h: Hour 3.0; for Tmax: median; for concentration at 0.5 h: Hour 0.50; for concentration at 1 h: Hour 1.0; for concentration at 4 h: Hour 4.0
[4] = Intranasal naltrexone with Intravail, AUC (data not presented); assay type: in vivo; conditions: effect of Intravail
Text: This important difference could not be predicted based on structure of the opioid antagonists, or the function of these moieties as opioid antagonists.

[5] = design: increase of total exposure (AUC): reference not given here; conditions: intranasal formulation with […] Intravail, cited from earlier work
[6] = 3 mg plus […] Intravail IN, N = 14
[7] = 1.5 mg, Mean plasma concentration of nalmefene, 1.5 mg IM
[8] = 1.5 mg, Mean plasma concentration of nalmefene, 1.5 mg IN
[9] = 3 mg, Mean plasma concentration of nalmefene, 3 mg + […] Intravail IN
[10] = 3 mg, Mean plasma concentration of nalmefene, 3 mg IN

C=C1CC[C@@]2(O)[C@H]3Cc4ccc(O)c5c4[C@@]2(CCN3CC2CC2)[C@H]1O5 [Nalmefene, 17-cyclopropylmethyl-4,5α-epoxy-6-methylenemorphinan-3,14-diol]
Mean plasma concentration of nalmefene ([1]; 1.5 mg IM, Hour 0.08): 0.457 ng/mL | Mean plasma concentration of nalmefene ([1]; 1.5 mg IM, Hour 0.17): 1.01 ng/mL | Mean plasma concentration of nalmefene ([1]; 1.5 mg IM, Hour 0.25): 1.43 ng/mL | Mean plasma concentration of nalmefene ([1]; 1.5 mg IM, Hour 0.33): 1.33 ng/mL | Mean plasma concentration of nalmefene ([1]; 1.5 mg IM, Hour 0.50): 1.19 ng/mL | Mean plasma concentration of nalmefene ([1]; 1.5 mg IM, Hour 0.75): 1.14 ng/mL | Mean plasma concentration of nalmefene ([1]; 1.5 mg IM, Hour 1.0): 1.08 ng/mL | Mean plasma concentration of nalmefene ([1]; 1.5 mg IM, Hour 2.0): 1.03 ng/mL | Mean plasma concentration of nalmefene ([1]; 1.5 mg IM, Hour 3.0): 0.878 ng/mL | Mean plasma concentration of nalmefene ([1]; 1.5 mg IM, Hour 4.0): 0.798 ng/mL | Mean plasma concentration of nalmefene ([1]; 1.5 mg IM, Hour 6.0): 0.688 ng/mL | Mean plasma concentration of nalmefene ([1]; 1.5 mg IM, Hour 8.0): 0.603 ng/mL | Mean plasma concentration of nalmefene ([1]; 1.5 mg IM, Hour 12.0): 0.470 ng/mL | Mean plasma concentration of nalmefene ([1]; 1.5 mg IM, Hour 16.0): 0.298 ng/mL | Mean plasma concentration of nalmefene ([1]; 1.5 mg IM, Hour 24.0): 0.128 ng/mL | Mean plasma concentration of nalmefene ([1]; 1.5 mg IM, Hour 30.0): 0.0740 ng/mL | AUCextrap ([1]; 1.5 mg IM, N = 13): 22.6% | Cmax/D ([1]; 1.5 mg IM, N = 13): 1.12 ng/mL/mg | Lambda z ([1]; 1.5 mg IM, N = 13): 0.094 h⁻¹ | AUCextrap ([1]; 1.5 mg IN, N = 14): 30.6% | Cmax/D ([1]; 1.5 mg IN, N = 14): 0.646 ng/mL/mg | Lambda z ([1]; 1.5 mg IN, N = 14): 0.131 h⁻¹ | AUCextrap ([1]; 3 mg IN, N = 14): 17.9% | Cmax/D ([1]; 3 mg IN, N = 14): 0.731 ng/mL/mg | Lambda z ([1]; 3 mg IN, N = 14): 0.101 h⁻¹ | AUCextrap [1, 6]: 14.6% | Cmax/D [1, 6]: 1.65 ng/mL/mg | Lambda z [1, 6]: 0.117 h⁻¹ | incidence of common adverse reactions (nausea, vomiting, tachycardia, hypertension, postoperative pain, fever, dizziness, headache, chills, hypotension, vasodilation) [2]: greater than 1% | potency versus naloxone ([3]; milligram-per-milligram basis): equipotent on a milligram-per-milligram basis | clearance ([3]; versus naloxone): slower than naloxone | half-life (clinical; 1.5 mg, 1.5 mg IN, mean, N = 14): 6.74 h | concentration at 0 h (clinical; [7]): 0 µg/mL | concentration at 36 h (clinical; [7]): 0 ng/mL | concentration at 48 h (clinical; [7]): 0 µg/mL | concentration at 60 h (clinical; [7]): 0 µg/mL | concentration at 72 h (clinical; [7]): 0 µg/mL | concentration at 0 h (clinical; [8]): 0 µg/mL | concentration at 0.08 h (clinical; [8]): 0 ng/mL | concentration at […] (clinical; 1.5 mg, Mean plasma concentration of nalmefene, 1.5 mg IN, Hour 0.75): 0.691 ng/mL | concentration at 2 h (clinical; [8]): 0.872 ng/mL | concentration at 3 h (clinical; [8]): 0.712 ng/mL | concentration at 12 h (clinical; 1.5 mg, Mean plasma concentration of nalmefene, 1.5 mg IN, Hour 12.0): 0.141 ng/mL | concentration at 30 h (clinical; 1.5 mg, Mean plasma concentration of nalmefene, 1.5 mg IN, Hour 30.0): 0 µg/mL | concentration at 36 h (clinical; [8]): 0 ng/mL | concentration at 48 h (clinical; [8]): 0 µg/mL | concentration at 60 h (clinical; [8]): 0 µg/mL | concentration at 72 h (clinical; [8]): 0 µg/mL | Tmax (clinical; 1.5 mg, 1.5 mg IN, N = 14): 2 h | AUC(0-t) (clinical; 3 mg, AUC0-t, 3 mg plus […] Intravail IN, mean, N = 14): 0.0173 µg·h/mL | half-life (clinical; 3 mg, 3 mg IN, mean, N = 14): 7.84 h | half-life (clinical; 3 mg, 3 mg plus […] Intravail IN, mean, N = 14): 6.78 h | concentration at 0 h (clinical; [9]): 0 µg/mL | concentration at 0.08 h (clinical; [9]): 0.931 ng/mL | concentration at […] (clinical; 3 mg, Mean plasma concentration of nalmefene, 3 mg + […] Intravail IN, Hour 0.17): 3.69 ng/mL | concentration at […] (clinical; 3 mg, Mean plasma concentration of nalmefene, 3 mg + […] Intravail IN, Hour 0.25): 4.38 ng/mL | concentration at […] (clinical; 3 mg, Mean plasma concentration of nalmefene, 3 mg + […] Intravail IN, Hour 0.33): 3.53 ng/mL | concentration at 0.5 h (clinical; [9]): 3.2 ng/mL | concentration at 1 h (clinical; [9]): 2.54 ng/mL | concentration at 2 h (clinical; [9]): 1.99 ng/mL | concentration at 3 h (clinical; [9]): 1.57 ng/mL | concentration at 4 h (clinical; [9]): 1.32 ng/mL | concentration at 6 h (clinical; 3 mg, Mean plasma concentration of nalmefene, 3 mg + […] Intravail IN, Hour 6.0): 0.91 ng/mL | concentration at 36 h (clinical; [9]): 0.0149 ng/mL | concentration at 48 h (clinical; [9]): 0 µg/mL | concentration at 60 h (clinical; [9]): 0 µg/mL | concentration at 72 h (clinical; [9]): 0 µg/mL | concentration at 0 h (clinical; [10]): 0 µg/mL | concentration at 0.08 h (clinical; [10]): 0 ng/mL | concentration at […] (clinical; 3 mg, Mean plasma concentration of nalmefene, 3 mg IN, Hour 0.25): 0.392 ng/mL | concentration at 0.5 h (clinical; [10]): 1.01 ng/mL | concentration at […] (clinical; 3 mg, Mean plasma concentration of nalmefene, 3 mg IN, Hour 0.75): 1.4 ng/mL | concentration at 1 h (clinical; [10]): 1.68 ng/mL | concentration at 3 h (clinical; [10]): 1.53 ng/mL | concentration at 4 h (clinical; [10]): 1.22 ng/mL | concentration at 24 h (clinical; 3 mg, Mean plasma concentration of nalmefene, 3 mg IN, Hour 24.0): 0.125 ng/mL | concentration at 48 h (clinical; [10]): 0 µg/mL | concentration at 60 h (clinical; [10]): 0 µg/mL | concentration at 72 h (clinical; [10]): 0 µg/mL | Tmax (clinical; 3 mg, 3 mg IN, N = 14): 2 h

O=C1CC[C@@]2(O)[C@H]3Cc4ccc(O)c5c4[C@@]2(CCN3CC2CC2)[C@H]1O5 [naltrexone, 17-(cyclopropylmethyl)-4,5α-epoxy-3,14-dihydroxymorphinan-6-one]
AUC [4]: increased significantly

CNS(=O)(=O)Cc1ccc2[nH]cc(CCN(C)C)c2c1 [sumatriptan]
increase of maximum plasma concentration ([5]; in comparison to Imitrex nasal spray): almost four-fold | Tmax [5]: 8 to 10 min | increase of total exposure (AUC) [5]: 32%
